Patent publication US8314123B2, “5, 6, or 7-substituted -3-(hetero) arylisoquinolinamine derivatives and therapeutic use thereof” (Rexahn Pharmaceuticals, Inc., priority 2006, dated 2012)

Legend:
Format in all cases: cell-based
OVCAR-3 (ovary) = experiment: In vitro cell proliferation assay (SRB), OVCAR3; settings: Homo sapiens, SRB method, 96 hours, read-out: Inhibition of cell growth (IC50, μM) OVCAR3
Description: (§1) Cancer cell lines to determine the effect of 5, 6, or 7-substituted-3-(hetero)arylisoquinolinamine compounds were obtained from the following sources: Human MDA-MB-231 (breast), PC3 (prostate), HCT-15 (colon), HCT116 (colon), OVCAR-3 (ovary), Caki-1 (kidney), PANC-1 (pancreas), SNB-19 (glioblastoma) and SK-MEL-28 (melanoma) from the American Type Culture Collection (ATCC) (Manassas, Va.). PC3, OVCAR-3, SK-MEL-28 and SNB-19 were grown in RPMI1640 medium (Invitrogen, Carlsbad, Calif.) supplemented with 10% fetal bovine serum (“FBS”), 1 mM sodium pyruvate, 10 mM HEPES and 100 U/ml penicillin and 100 μg/ml streptomycin (“P/S”). MDA-MB-231, Caki-1, HCT-15 (colon) and PANC-1 cells were maintained in Dulbecco's modified Eagle's medium (“DMEM”, Invitrogen) supplemented with 10% FBS, P/S and 10 mM HEPES. HCT116 cells were maintained in DMEM supplemented with 10% FBS, P/S and 10 mM HEPES for in vitro cell proliferation assay and in RPMI1640 medium supplemented with 10% FBS, 1 mM sodium pyruvate, 10 mM HEPES and P/S for in vitro cell cycle analysis. All cells were incubated at 37° C. under humidified 5% CO2.
(§2) The growth inhibition of the 5, 6, or 7-substituted-3-(hetero)arylisoquinolinamine derivatives against a variety of human tumor cells was evaluated to study the relative importance of particular substituent groups on the compounds. The 5, 6, or 7-substituted-3-(hetero)arylisoquinolinamine derivatives, prepared as described above, were tested with DMSO as a control.
(§3) The growth inhibition assay of representative 5, 6, or 7-substituted-3-(hetero)arylisoquinolinamine derivatives against human tumor cell lines was performed using the Sulforhodamine B (“SRB”) method (Skehan et al., J. National Cancer Institute, 82: 1107-1112 (1990)). Briefly, exponentially growing tumor cells were seeded into a 96-well plate at a density of 2-3×10^3 cells/well and treated with 5, 6, or 7-substituted-3-(hetero)arylisoquinolinamine compounds the next day. Triplicate wells were used for each treatment. The cells were incubated with the various compounds for 96 hours at 37° C. in a humidified 5% CO2 atmosphere. After 96-hour incubation, cells were fixed with 10% trichloroacetic acid (“TCA”), incubated for 1 hour at 4° C., and washed 3 times with tap water. Subsequently, cells were stained with 0.4% sulforhodamine B in 1% acetic acid for 30 minutes, washed 4 times with 1% acetic acid, and air-dried again. After 5 minutes agitation in 10 mM Tris solution, the absorbance of each well was measured at 530 nm using Benchmark Plus Microplate reader (Bio-Rad Laboratories, Hercules, Calif.).
(§4) To translate the OD530 values into the number of live cells in each well, the OD530 values were compared to those on standard OD530-versus-cell number curves generated for each cell line. The percent survival was calculated using the formula: % Survival=live cell number [test]/live cell number [control]×100
(§5) The IC50 values were calculated by non-linear regression analysis.

PANC-1 (pancreas) = experiment: In vitro cell proliferation assay (SRB), PANC-1; settings: Homo sapiens, SRB method, 96 hours, read-out: Inhibition of cell growth (IC50, μM) PANC-1
Description: as §1, §2, §3, §4, §5

MDA-MB-231 (breast) = experiment: In vitro cell proliferation assay (SRB), MDA-MB-231; settings: Homo sapiens, SRB method, 96 hours, read-out: Inhibition of cell growth (IC50, μM) MDA-MB-231
Description: as §1, §2, §3, §4, §5

SK-MEL-28 (melanoma) = experiment: In vitro cell proliferation assay (SRB), SK-MEL-28; settings: Homo sapiens, SRB method, 96 hours, read-out: Inhibition of cell growth (IC50, μM) SK-MEL-28
Description: as §1, §2, §3, §4, §5

HCT116 (colon) = experiment: In vitro cell proliferation assay (SRB), HCT116; settings: Homo sapiens, HCT-116; SRB method, 96 hours; Table 3; read-out: Inhibition of cell growth (IC50, μM) HCT116
Description: as §1, §2, §3, §4, §5

SNB-19 (glioblastoma) = experiment: In vitro cell proliferation assay (SRB), SNB19; settings: Homo sapiens, SRB method, 96 hours, read-out: Inhibition of cell growth (IC50, μM) SNB19
Description: as §1, §2, §3, §4, §5

Caki-1 (kidney) = experiment: In vitro cell proliferation assay (SRB), Caki-1; settings: Homo sapiens, SRB method, 96 hours, read-out: Inhibition of cell growth (IC50, μM) Caki-1
Description: as §1, §2, §3, §4, §5

PC3 (prostate) = experiment: In vitro cell proliferation assay (SRB), PC3; settings: Homo sapiens; SRB method, 96 hours; read-out: Inhibition of cell growth (IC50, μM) PC3
Description: as §1, §2, §3, §4, §5

human cancer cell lines = experiment: Growth inhibition against the panel of human tumor cell lines (SRB), overall statements; settings: Table 3 cell lines
Description: as §1, §2, §3, §4, §5
Using QSAR and medicinal chemistry techniques, a large number of compounds, including the compounds shown in Table 1-2 above, were synthesized. The synthesized compounds were screened against at least four cancer cell lines, PANC-1, MDA-MB-231, HCT116 and Caki-1, at approximately 1 μM concentration. Compounds showing activity in at least one of these cell lines were selected for further screening. From these compounds, thirty compounds were selected for further evaluation as broad-spectrum anti-proliferative agents as shown in the following Table 3.

Row | SMILES | IC50 (OVCAR-3 (ovary)) | IC50 (PANC-1 (pancreas)) | IC50 (MDA-MB-231 (breast)) | IC50 (SK-MEL-28 (melanoma)) | IC50 (HCT116 (colon)) | IC50 (SNB-19 (glioblastoma)) | IC50 (PC3 (prostate)) | IC50 (Caki-1 (kidney)) | activity in growth inhibition of human cancer cell compared to Compound 23 (human cancer cell lines)
1 | COc1ccc(-c2cc3ccc(C)cc3c(N)n2)c(C)c1 [Compound 42, 3-(4-Methoxy-2-methylphenyl)-7-methylisoquinolin-1-amine] | 0.13 µM | 0.18 µM | 0.079 µM | 0.21 µM | 0.12 µM | 0.2 µM | 0.2 µM | 0.065 µM | equal or better activity
2 | Cc1ccc2cc(-c3ccc4c(c3)OCO4)nc(N)c2c1 [Compound 45, 3-(Benzo[d][1,3]dioxol-6-yl)-7-methylisoquinolin-1-amine] | 0.23 µM | 0.37 µM | 0.15 µM | 0.42 µM | 0.18 µM | 0.38 µM | 0.25 µM | 0.13 µM | equal or better activity
3 | Cc1ccc2cc(-c3ccccc3C)nc(N)c2c1 [Compound 48, 7-Methyl-3-o-tolylisoquinolin-1-amine] | 0.1 µM | 0.2 µM | 0.075 µM | 0.18 µM | 0.12 µM | 0.16 µM | 0.26 µM | 0.14 µM | equal or better activity
4 | COc1ccc(C)c(-c2cc3ccc(C)cc3c(N)n2)c1 [Compound 50, 3-(5-Methoxy-2-methylphenyl)-7-methyl-isoquinolin-1-amine] | 0.042 µM | 0.058 µM | 0.03 µM | 0.051 µM | 0.042 µM | 0.052 µM | 0.07 µM | 0.047 µM | equal or better activity
5 | COc1cccc(-c2cc3cc(OC)c(OC)cc3c(N)n2)c1 [Compound 52, 6,7-Dimethoxy-3-(3-methoxyphenyl)isoquinolin-1-amine] | 0.074 µM | 0.19 µM | 0.14 µM | 0.23 µM | 0.16 µM | 0.22 µM | 0.18 µM | 0.17 µM | equal or better activity

The remaining compounds from weak to strong by IC50 (OVCAR-3 (ovary)), led by results:

Row | IC50 (OVCAR-3 (ovary)) | IC50 (PANC-1 (pancreas)) | IC50 (MDA-MB-231 (breast)) | IC50 (SK-MEL-28 (melanoma)) | IC50 (HCT116 (colon)) | IC50 (SNB-19 (glioblastoma)) | IC50 (PC3 (prostate)) | SMILES | IC50 (Caki-1 (kidney)) | activity in growth inhibition of human cancer cell compared to Compound 23 (human cancer cell lines)
6 | 0.18 µM | 0.31 µM | 0.14 µM | 0.34 µM | 0.19 µM | 0.29 µM | 0.25 µM | COc1cccc(-c2cc3cc(C)ccc3c(N)n2)c1 [Compound 25, 3-(3-Methoxyphenyl)-6-methylisoquinolin-1-amine] | 0.13 µM | equal or better activity
7 | 0.17 µM | 0.24 µM | 0.15 µM | 0.29 µM | 0.17 µM | 0.28 µM | 0.25 µM | COc1ccc(-c2cc3cc(C)ccc3c(N)n2)c(C)c1 [Compound 31, 3-(4-Methoxy-2-methylphenyl)-6-methylisoquinolin-1-amine] | 0.12 µM | equal or better activity
8 | 0.16 µM | 0.22 µM | 0.13 µM | 0.22 µM | 0.16 µM | 0.23 µM | 0.19 µM | Cc1ccc2c(N)nc(-c3ccc4c(c3)OCO4)cc2c1 [Compound 28, 3-(Benzo[d][1,3]dioxol-6-yl)-6-methylisoquinolin-1-amine] | 0.11 µM | equal or better activity
9 | 0.16 µM | 0.21 µM | 0.14 µM | 0.23 µM | 0.17 µM | 0.24 µM | 0.24 µM | Cc1ccc2c(N)nc(-c3c(C)cccc3C)cc2c1 [Compound 34, 6-Methyl-3-(2,6-dimethylphenyl)isoquinolin-1-amine] | 0.12 µM | equal or better activity
10 | 0.15 µM | 0.2 µM | 0.15 µM | 0.25 µM | 0.18 µM | 0.21 µM | 0.22 µM | Cc1ccc(-c2cc3cc(C)ccc3c(N)n2)cc1 [Compound 36, 6-Methyl-3-p-tolylisoquinolin-1-amine] | 0.16 µM | equal or better activity
11 | 0.071 µM | 0.11 µM | 0.059 µM | 0.11 µM | 0.064 µM | 0.094 µM | 0.19 µM | COc1cccc(-c2cc3cc(N(C)C)ccc3c(N)n2)c1 [Compound 21, 3-(3-Methoxyphenyl)-N^6,N^6-dimethyl-isoquinoline-1,6-diamine] | 0.068 µM | equal or better activity
12 | 0.025 µM | 0.026 µM | 0.027 µM | 0.045 µM | 0.029 µM | 0.057 µM | 0.048 µM | COc1cc(OC)cc(-c2cc3ccc(N(C)C)cc3c(N)n2)c1.Cl [Compound 16, 3-(3,5-Dimethoxyphenyl)-N^7,N^7-dimethylisoquinoline-1,7-diamine hydrochloride] | 0.038 µM | equal or better activity
